Reference: paper PMC9065145, “Open label safety and efficacy pilot to study mitigation of equine recurrent uveitis through topical suppressor of cytokine signaling-1 mimetic peptide” (Scientific Reports, 2022)
Like-named read-outs stand apart in the source and are kept apart here. Ends that are not written are not given here. palmitoyl‑Lys = palmitoyl-lysine

Assays:
[1] = tested on: experimentally induced uveitis; design: method as in PMID 27703302, PMID 26094775; conditions: rats, topical application as simple eye drop; cited from earlier work
[2] = tested on: equine recurrent uveitis (ERU); assay type: in vivo, horse; conditions: for Response to mimetic: symbols not defined
Excerpt: A priori ERU patients with confirmed ERU but lacking severe ophthalmic decrements (evidence of chronicity), were optimal for enrollment in clinical trial. However, given the unmet need presented by ERU, horses with uncontrolled ERU-mediated inflammation were also enrolled (even with ophthalmic decrement), given that peptide efficacy could be assessed. Reduction in hyperemia was established as the primary endpoint evaluation of peptide efficacy. A priori power analysis established that nine patients would be required to assess a significant decrease in hyperemia, based on historical data from the institution. Ten total patients were enrolled through direct contact with Dr. Plummer. […] No exclusions were made, with all participants noted in Table 1. All procedures were conducted on equine patients subsequent to owner consent.
Ten horses (7 geldings and 3 mares) diagnosed with ERU were enrolled in a short-term, open-label trial to assess the efficacy of topical SOCS1 KIR. The administration of the SOCS1 KIR peptide was in the context of a therapeutic treatment. The horses of varied breed (appaloosa, quarter horse, miniature, and paint- aged 5–21) enrolled in the trial, presenting with acute or insidious disease, were admitted into the University of Florida Veterinary Hospital for 4–7 days to begin treatments with topical SOCS1 KIR. The horses admitted to the clinic were closely evaluated for efficacy and possible negative effects of the treatment. Examinations included intraocular pressure measurement, slit lamp biomicroscopy, and direct and indirect ophthalmoscopy as possible. 200 µg of SOCS1 KIR was administered in 100 µL topically, which was a small volume that prevented reflex tear formation and possible peptide elimination. Seven of 10 patients presented with bilateral disease for a total evaluation of 17 eyes to assess peptide efficacy (Table 1). After hospitalization, ERU patients were returned to their owners, who continued peptide administration from home. The horses underwent complete physical and ophthalmic examinations at day 0, day 3, day 14, and day 42. During the ophthalmic examinations, the horses were scored for discomfort, hyperemia, and aqueous flare using a modified MacDonald-Shadduck System[35] by both the attending veterinary ophthalmologist and four additional masked veterinary ophthalmologists. Safety outcomes at each observation period included: (i) ocular irritation scores (utilizing the modified MacDonald-Shadduck scoring system-); (ii) number of new cases of ocular infections; (iii) number of horses affected with peptide-mediated damage to the eye; (iv) intraocular pressure (mmHg); and (v) ERG b-wave amplitudes to assess retinal function.
Specific rationale is as follows: Given the novelty of the use of topical SOCS1-mimetic peptide, the administration of peptide in this pilot study was ethically conducted in open-label fashion, without randomization, so that rescue medications could be administered, if necessary. […] A single investigator (C.P.) was aware of the drug allocations and the results of clinical evaluations. However, 4 masked veterinarians were utilized to obtain the clinical scoring obtained in Fig. 4E. Given the open enrollment utilized in this pilot study and the administration of drug by patient owners at home, confounders could not be controlled. Placebo medications were not utilized, although SOCS1 mimetic peptide was provided as compassionate use as specific owners noted symptom resumption during drug dry out period (not statistically analyzed).
Experimental data are presented as mean ± standard error of the mean […]. All statistical analyses were performed using GraphPad Prism version 8 software (GraphPad Software, La Jolla, CA, USA). For the in vivo assessment of ERU recovery, paired students t tests were utilized. The data were deemed statistically significant if P ≤ 0.05. […]

[3] = tested on: experimental autoimmune encephalomyelitis (a rodent model of multiple sclerosis); design: method as in PMID 21788442, PMID 21131060, PMID 33737712; conditions: peritoneal administration; cited from earlier work
[4] = tested on: experimentally induced uveitis; design: method as in PMID 27703302, PMID 26094775; conditions: mice, topical application as simple eye drop; cited from earlier work
[5] = tested on: pJAK2 (1001–1013) peptide; experiment: Competitive inhibition binding assay; conditions: 5 µg/mL biotinylated pJAK2 pre-incubated with increasing soluble SOCS1-KIR (8-500, printed mg/mL), RT, then direct binding assay; semi-logarithmic fit R2 ≥ 0.95; n = 3
Description: Direct binding assays were performed at room temperature (RT) for 2 h as previously described[34] with modifications. Briefly, Polystyrene 96-well flat bottom plates were seeded with SOCS1 KIR peptide (500 µg/mL) in 0.05 M carbonate-bicarbonate buffer (pH 9.6). The plates were washed 4 times in the wash buffer (Phosphate-buffered saline in 0.05% Tween-20) followed by incubation for 2 h in blocking buffer (3% bovine serum albumin (BSA), 3 mM ethylenediaminetetraacetic acid (EDTA), 0.1% gelatin, and 0.05% Tween 20) and then washed 4 times. Serial dilutions of biotinylated phosphorylated JAK2 (pJAK2) in assay diluent (2% BSA, 3 mM EDTA, 0.01% gelatin, and 0.05% Tween 20) (10, 5, 2.5, 1.25, 0.625, 0.312 µg/mL) were then added to the coated plates for 90 min followed by washing 7 times. Streptavidin- horseradish peroxidase (1:4000, HRP) [BD Biosciences, Cat# 554066] was then added for 30 min followed by 12 wash cycles. Finally, 100 µL 3,3′,5,5′-Tetramethylbenzidine (TMB) substrate [BD Biosciences, Cat# 555214] was added for 30 min followed by assessment with spectrophotometer readings at an absorbance of 450 nm. For competitive Inhibition assays, 5 µg/mL biotinylated pJAK2 was pre-incubated with varying concentrations of SOCS1-KIR ([…]) for 1 h at RT prior and then, a direct binding assay was performed. […]

[6] = tested on: induced uveitis; conditions: cited from earlier work
[7] = tested on: SOCS1-/- mice; conditions: cited from earlier work
Excerpt: (§1) Many of the uveal tract destructive cytokines produced by infiltrating T lymphocytes are dependent on Jak2 for either production or signal transduction[38],[46]. […] Endogenous SOCS1 binds to the activation loop of JAK2, inhibit ...

[8] = tested on: lupus pathologies in preclinical models; conditions: cited from earlier work
Excerpt: as §1

[9] = molecular target: T1, pJAK2 activation loop peptide (Equus caballus); experiment: ELISA-type direct plate binding assay
T1 chain: LPQDKEYYKVKEP

[10] = ERU horses, topical, not reaching statistical significance

For DTHFRTFRSHSDYRRI [SOCS1-KIR], the experimentally induced uveitis [1] is listed as “mitigated experimentally induced uveitis”, the “resolution of inflammatory processes coinciding with administration (number of horses)” value ([2]; ERU horses other than patient 2, 4 horses also received diclofenac and/or atropine) is listed as “eight of the remaining 9 horses” and the “reduction in clinical scoring, masked veterinary scoring of ocular photographs” value ([2]; ERU horses, by 6 weeks of topical treatment, four masked veterinarians, n = 8, statistically significant) is listed as 75%. The “patients responsive to administration as a monotherapy” value ([2]; ERU horses, topical) was “four of the ten patients”, the “reduction in hyperemia clinical scoring” value ([2]; ERU horses, topical 200 µg in 100 µl twice a day, 6-week evaluation, modified MacDonald-Shadduck score, n = 14 eyes, p < 0.01, paired t test) was 40% and the “reduction in aqueous flare” value ([2]; ERU horses, topical 200 µg in 100 µl twice a day, 6 weeks, modified MacDonald-Shadduck score, n = 14, p < 0.01) was 50%. For the same molecule, the “reduction in overall discomfort” value ([2]; ERU horses, topical 200 µg in 100 µl twice a day, 6 weeks, n = 8, eyes without discomfort omitted, p < 0.05) was “near complete reduction”, the hypopyon [2, 10] was “consistent improvements” and the intraocular pressure [2, 10] was “consistent improvements”. For the same molecule, the “patients refractory to mimetic treatment” value ([2]; ERU horses, the refractory patients had severe disease) was 3/10, the Response to mimetic ([2]; PT1: Appaloosa gelding, 21 years, severe disease, blind OS, bilateral, plus diclofenac/atropine, 9 months) was “+ +” and the “Response to mimetic dryout period” value ([2]; PT1: severe disease, plus diclofenac/atropine) was “yes”. The Response to mimetic ([2]; Pt 3: Miniature gelding, 16 years, severe disease, bilateral, monotherapy, lost to followup) was “+ + +”, the Response to mimetic ([2]; Pt 4: Paint mare, 16 years, moderate disease, plus atropine, 2 months) was “+ + +” and the Response to mimetic ([2]; Pt 5: Appaloosa gelding, 17 years, mild disease, bilateral, monotherapy, 8 months) was “+ + +”. The “Response to mimetic dryout period” value ([2]; Pt 5: mild disease, monotherapy) was “yes”, the Response to mimetic ([2]; Pt 7: Appaloosa gelding, 16 years, mild, bilateral, monotherapy, 3 months) was “+ + +” and the “Response to mimetic dryout period” value ([2]; Pt 7: mild, monotherapy) was “yes”. The Response to mimetic ([2]; Pt 9: Appaloosa mare, 14 years, moderate disease, bilateral, plus diclofenac/atropine, 8 months) was “+ + +”, the “Response to mimetic dryout period” value ([2]; Pt 9: moderate disease, plus diclofenac/atropine) was “yes” and the “drug related negative events, long-term use” value ([2]; in vivo) was “no observed drug related negative events”. The systemic immune suppression ([2]; in vivo) was “no observed systemic immune suppression”, the “discomfort and inflammation when treatment was resumed (compassionate use)” value ([2]; owner-noted, after return of inflammation in the peptide dry-out period, four owners, not quantitated) was “subsequent decreases in discomfort and inflammation” and the “clinical improvement, patient 2” value ([2]; severe ERU, minimal sight in one eye, SOCS1-KIR 2 mg/ml topical, inflammation persisted, euthanised) was “very modest clinical improvement”. For the same molecule, the “progression of experimental autoimmune encephalomyelitis” value [3] was “inhibited progression of experimental autoimmune encephalomyelitis”, the experimentally induced uveitis [4] was “mitigated experimentally induced uveitis” and the “signal intensity of pJak2 (1001–1013) binding to plate bound SOCS1-KIR peptide” value [5] was “semi-logarithmic decrease in the signal intensity”. The “chemokines CCL2, CCL20 and CXCL9 and chemokine receptors CCR2, CCR4, CCR6 and CXCR3” value ([6]; induced uveitis rodent studies) was “decreases”, the “TH1- and TH17-associated cytokines and IL-10” value ([6]; rodent models of uveitis, topical administration to the eye) was “suppresses both TH1- and TH17- associated cytokines, while promoting the production of IL-10” and the “perinatal lethality of SOCS1-/- mice” value ([7]; peritoneal administration) was “rescued SOCS1-/- mice from perinatal lethality”. For the same molecule, the “circulating memory T cells and Foxp3 high T lymphocytes” value ([7]; rodent model of SOCS1 genetic deficiency, peritoneal injection) was “decreased circulating memory T cells and increased Foxp3 high T lymphocytes”, the lupus pathologies ([8]; peritoneal administration, preclinical models) was “reduced lupus pathologies” and the “circulating memory T cells and Foxp3 high T lymphocytes” value ([8]; spontaneous lupus model, peritoneal injection) was “decreased circulating memory T cells and increased Foxp3 high T lymphocytes”.

B1: SOCS1-KIR mimetic peptide (peptide)
chain: {palmitoyl‑Lys}-DTHFRTFRSHSDYRRI
For B1, the Kd [9] was 1700 nM.
